Reference: US7358250B2, “Pyrrolo[2,3-d]pyrimidines that modulate ACK1 activity” (Amgen Inc., priority 2004, dated 2008)

How the values were obtained:
[1] = test system: C8 cells; experiment: ACK1 Cell Based Assay, test (C8) cell line; details: 0.125% FCS, 20 to 24 h, cell viability (Cytotox One kit)
Procedure: The ACK1 cell based assay is designed to find inhibitors of ACK1 kinase activity which would be prime candidates for the development of anticancer drugs. […] This dependency was confirmed utilizing ACK1 specific siRNAs.
For this assay, test (C8) and control (HeLa) cell lines are seeded in 96 well tissue culture plates (BD Falcon) at a density of 2 to 4×10^4 in DMEM/F12 (C8) or DMEM (HeLa) with 0.125% FCS in the presence of ACK1 inhibitors (final DMSO concentration is 0.5%, all tissue culture media are from Cellgro). After 20 to 24 h incubation at 37° C. and 5% CO2, cell viability is determined using the Cytotox One kit (Promega) according to the manufacturer's instructions.

[2] = molecular target: T1, ACK1 (Homo sapiens, UniProt Q07912); experiment: ACK1 Enzymatic Assay; format: biochemical; details: 5 μM ATP, ELISA phosphotyrosine readout
T1 construct: a fusion of an N-terminal (His)6 Tag with amino acids 117 to 489 of ACK1; (His)6 (N); made in house; host or cells: baculovirus infected Hi-5 insect cells
Procedure: IC50 values of inventive compounds may be assessed as follows. […] The substrate of for the reaction is ACK1 itself (autophosphorylation) and poly-Glutamic acid-Tyrosine (PGT (4:1), Sigma catalog #PO275). The PGT is coated to Nunc 96 well plates at 80 μg/mL overnight at 4° C. […] Test compounds are added in 10 μL DMSO, and the reaction is started by addition of 10 μL kinase in assay buffer. The reaction proceeds 2 h at room temperature. Next the plates are washed four times, and the level of tyrosine phosphorylation in a given well is quantified by standard ELISA assay utilizing a phosphotyrosine antibody (PY20, Pierce).

[3] = molecular target: T2, LCK (Homo sapiens, UniProt P06239); experiment: LCK-Homogeneous Time Resolved Fluorescent (HTRF) Kinase Assay; format: biochemical; details: LCK KD GST (225-509)
T2 construct: 15 μL of LCK KD GST (225-509) for a final volume of 40 μL; GST
Procedure: The LCK HTRF assay begins with LCK in the presence of ATP phosphorylating the biotinylated peptide Gastrin. The reaction incubates for 90 min. To quench the assay detection reagents are added which both stop the reaction by diluting out the enzyme and chelating the metals due to the presence of EDTA. Once the detection reagents are added the assay incubates for 30 min to allow for equilibration of the detection reagents.
The final concentration of gastrin is 1.2 μM. The final concentration of ATP is 0.5 μM (Km app=[…]) and the final concentration of LCK is […]. Buffer conditions are as follows: 50 mM HEPES pH 7.5, 50 mM NaCl, 20 mM MgCl, 5 mM MnCl, 2 mM DTT, 0.05% BSA.
The assay is quenched and stopped with 160 μL of detection reagent. Detection reagents are as follows: Buffer made of 50 mM Tris, pH 7.5, 100 mM NaCl, 3 mM EDTA, 0.05% BSA, 0.1% Tween20. Added to this buffer prior to reading is Steptavidin allophycocyanin (SA-APC) at a final conc in the assay of 0.0004 mg/mL, and europilated anti-phosphotyrosine Ab (Eu-anti-PY) at a final conc of 0.025 nM.
The assay plate is read in either a Discovery or a RubyStar. The eu-anti-PY is excited at 320 nm and emits at 615 nm to excite the SA-APC which in turn emits at 655 nm. The ratio of SA-APC at 655 nm (excited due to close proximity to the Eu-anti-PY because of phosphorylation of the peptide) to free Eu-anti-PY at 615 nm will give substrate phosphorylation.

T2 sequence (P06239 225-509): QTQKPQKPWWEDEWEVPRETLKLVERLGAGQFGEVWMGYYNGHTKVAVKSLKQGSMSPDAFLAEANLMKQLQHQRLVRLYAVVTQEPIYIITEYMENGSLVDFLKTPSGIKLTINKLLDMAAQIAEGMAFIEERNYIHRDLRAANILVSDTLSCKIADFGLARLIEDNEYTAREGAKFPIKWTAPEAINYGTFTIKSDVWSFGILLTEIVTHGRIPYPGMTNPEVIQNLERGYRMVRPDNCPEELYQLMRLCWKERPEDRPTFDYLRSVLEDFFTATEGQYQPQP
T1 sequence (Q07912 117-489): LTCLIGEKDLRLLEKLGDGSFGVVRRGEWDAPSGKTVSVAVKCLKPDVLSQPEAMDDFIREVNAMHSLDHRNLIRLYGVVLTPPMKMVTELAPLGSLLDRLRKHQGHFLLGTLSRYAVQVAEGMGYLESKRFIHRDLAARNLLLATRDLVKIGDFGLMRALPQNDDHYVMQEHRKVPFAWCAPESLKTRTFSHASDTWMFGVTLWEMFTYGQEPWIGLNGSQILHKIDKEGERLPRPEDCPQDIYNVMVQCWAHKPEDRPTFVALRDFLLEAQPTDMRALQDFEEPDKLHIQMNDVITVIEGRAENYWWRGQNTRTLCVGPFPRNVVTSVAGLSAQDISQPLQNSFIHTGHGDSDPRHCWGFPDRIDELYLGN

| Ki [2] [nM] | Ki [3] [nM] | Structure (SMILES) | IC50 [1] [nM] |
| --- | --- | --- | --- |
| < 10 | < 10 | c1ccc(-c2c(-c3ccc(OCCN4CCCC4)cc3)[nH]c3ncnc(NCC4CCCO4)c23)cc1 (stereo not drawn) [Example 22, {5-Phenyl-6-[4-(2-pyrrolidin-1-yl-ethoxy)-phenyl]-7H-pyrrolo[2,3-d]pyrimidin-4-yl}-(tetrahydrofuran-2-ylmethyl)-amine] | 10 to 100 |
| 10 to 100 | < 10 | CN(C)CCOc1ccc(-c2[nH]c3ncnc(NCC4CCC4)c3c2-c2ccccc2)cc1 [Example 34, Cyclobutylmethyl-{6-[4-(2-dimethylamino-ethoxy)-phenyl]-5-phenyl-7H-pyrrolo[2,3-d]pyrimidin-4-yl}-amine] | > 100 |
| < 10 | < 10 | O=S(=O)(NCCO)c1ccc(-c2[nH]c3ncnc(NC[C@@H]4CCCO4)c3c2-c2ccccc2)cc1 [Example 18, N-(2-Hydroxy-ethyl)-4-{5-phenyl-4-[(tetrahydro-furan-2-ylmethyl)-amino]-7H-pyrrolo[2,3-d]pyrimidin-6-yl}-benzenesulfonamide] | > 100 |
| < 10 | < 10 | COCCNS(=O)(=O)c1ccc(-c2[nH]c3ncnc(NCC4CCCO4)c3c2-c2ccccc2)cc1 (stereo not drawn) [Example 9, N-(2-Methoxyethyl)-4-{5-phenyl-4-[(tetrahydrofuran-2-ylmethyl)-amino]-7H-pyrrolo[2,3-d]pyrimidin-6-yl}-benzenesulfonamide] | 10 to 100 |
| 10 to 100 | < 10 | c1ccc(-c2[nH]c3ncnc(NCC4CCCCO4)c3c2-c2ccccc2)cc1 (stereo not drawn) [Example 4, (5,6-Diphenyl-7H-pyrrolo[2,3-d]pyrimidin-4-yl)-(tetrahydropyran-2-ylmethyl) amine] | > 100 |
| < 10 | < 10 | O=C1CCCN1CCOc1ccc(-c2[nH]c3ncnc(NCC4CCCO4)c3c2-c2ccccc2)cc1 (stereo not drawn) [Example 23, 1-[2-(4-{5-Phenyl-4-[(tetrahydrofuran-2-ylmethyl)-amino]-7H-pyrrolo[2,3-d]pyrimidin-6-yl}-phenoxy)-ethyl]-pyrrolidin-2-one] | 10 to 100 |
| < 10 | < 10 | CN(C)CCNC(=O)c1ccc(-c2[nH]c3ncnc(NCC4CCCO4)c3c2-c2ccccc2)cc1 (stereo not drawn) [Example 32, N-(2-Dimethylamino-ethyl)-4-{5-phenyl-4-[(tetrahydrofuran-2-ylmethyl)-amino]-7H-pyrrolo[2,3-d]pyrimidin-6-yl}-benzamide] | 10 to 100 |
| < 10 | < 10 | c1ccc(-c2[nH]c3ncnc(NCC4CCCO4)c3c2-c2ccccc2)cc1 (stereo not drawn) [Example 2, (5,6-Diphenyl-7H-pyrrolo[2,3-d]pyrimidin-4-yl)-(tetrahydrofuran-2-ylmethyl)-amine] | > 100 |
| 10 to 100 | < 10 | c1ccc(-c2[nH]c3ncnc(NCC4CCCS4)c3c2-c2ccccc2)cc1 (stereo not drawn) [Example 3, (5,6-Diphenyl-7H-pyrrolo[2,3-d]pyrimidin-4-yl)-(tetrahydrothiophen-2-ylmethyl)-amine] | > 100 |
| > 100 | < 10 | CN(C)CCOc1ccc(-c2[nH]c3ncnc(NC[C@@H]4CCC[C@H]4N)c3c2-c2ccccc2)cc1 (relative stereo) [Example 40, trans-(2-Amino-cyclopentylmethyl)-{6-[4-(2-dimethylamino-ethoxy)-phenyl]-5-phenyl-7H-pyrrolo[2,3-d]pyrimidin-4-yl}-amine] | > 100 |
| 10 to 100 | 10 to 100 | CC(C)(C)OC(=O)CNS(=O)(=O)c1ccc(-c2[nH]c3ncnc(NCC4CCCO4)c3c2-c2ccccc2)cc1 (stereo not drawn) [Example 13, (4-{5-Phenyl-4-[(tetrahydrofuran-2-ylmethyl)-amino]-7H-pyrrolo[2,3-d]pyrimidin-6-yl}-benzenesulfonylamino)-acetic acid tert-butyl ester] | > 100 |
| 10 to 100 | < 10 | CN(C)CCOc1ccc(-c2[nH]c3ncnc(NC[C@@H]4CCC[C@H]4NS(C)(=O)=O)c3c2-c2ccccc2)cc1 (relative stereo) [Example 41, trans-N-[2-({6-[4-(2-Dimethylamino-ethoxy)-phenyl]-5-phenyl-7H-pyrrolo[2,3-d]pyrimidin-4-ylamino}-methyl)-cyclopentyl]-methanesulfonamide] | > 100 |
| < 10 | < 10 | COCCN(CCOC)S(=O)(=O)c1ccc(-c2[nH]c3ncnc(NCC4CCCO4)c3c2-c2ccccc2)cc1 (stereo not drawn) [Example 8, N,N-Bis-(2-methoxyethyl)-4-{5-phenyl-4-[(tetrahydrofuran-2-ylmethyl)-amino]-7H-pyrrolo[2,3-d]pyrimidin-6-yl}-benzenesulfonamide] | > 100 |
| < 10 | 10 to 100 | O=C(O)CNS(=O)(=O)c1ccc(-c2[nH]c3ncnc(NC[C@@H]4CCCO4)c3c2-c2ccccc2)cc1 [Example 17] | > 100 |
| < 10 | < 10 | O=S(=O)(c1ccc(-c2[nH]c3ncnc(NC[C@@H]4CCCO4)c3c2-c2ccccc2)cc1)N(CCO)CCO [Example 19, N,N-Bis-(2-hydroxyethyl)-4-{5-phenyl-4-[(tetrahydro-furan-2-ylmethyl)-amino]-7H-pyrrolo[2,3-d]pyrimidin-6-yl}-benzenesulfonamide] | > 100 |
| > 100 | 10 to 100 | CN(C)CCOc1ccc(-c2[nH]c3ncnc(NC[C@H]4CCC[C@H]4N)c3c2-c2ccccc2)cc1 (relative stereo) [Example 38, cis-(2-Amino-cyclopentylmethyl)-{6-[4-(2-dimethylamino-ethoxy)-phenyl]-5-phenyl-7H-pyrrolo[2,3-d]pyrimidin-4-yl}-amine] | > 100 |
| < 10 | 10 to 100 | NS(=O)(=O)c1ccc(-c2[nH]c3ncnc(NC[C@@H]4CCCO4)c3c2-c2ccccc2)cc1 [Example 15, 4-{5-Phenyl-4-[(tetrahydrofuran-2-ylmethyl)-amino]-7H-pyrrolo[2,3-d]pyrimidin-6-yl}-benzenesulfonamide] | > 100 |
| < 10 | < 10 | CNS(=O)(=O)c1ccc(-c2[nH]c3ncnc(NCC4CCCO4)c3c2-c2ccccc2)cc1 (stereo not drawn) [Example 6, N-Methyl-4-{5-phenyl-4-[(tetrahydrofuran-2-ylmethyl)-amino]-7H-pyrrolo[2,3-d]pyrimidin-6-yl}-benzenesulfonamide] | 10 to 100 |
| < 10 | < 10 | O=S(=O)(c1ccc(-c2[nH]c3ncnc(NCC4CCCO4)c3c2-c2ccccc2)cc1)N1CCOCC1 (stereo not drawn) [Example 10, {6-[4-(Morpholin-4-sulfonyl)-phenyl]-5-phenyl-7H-pyrrolo[2,3-d]pyrimidin-4-yl}-(tetrahydrofuran-2-ylmethyl)-amine] | > 100 |
| < 10 | < 10 | O=C(NC1CC1)c1ccc(-c2[nH]c3ncnc(NCC4CCCO4)c3c2-c2ccccc2)cc1 (stereo not drawn) [Example 29, N-Cyclopropyl-4-{5-phenyl-4-[(tetrahydrofuran-2-ylmethyl)-amino]-7H-pyrrolo[2,3-d]pyrimidin-6-yl}-benzamide] | 10 to 100 |
| 10 to 100 | < 10 | CO[C@@H]1CC[C@H]1CNc1ncnc2[nH]c(-c3ccc(OCCN(C)C)cc3)c(-c3ccccc3)c12 (mixture of isomers) [Example 35, trans/cis-{6-[4-(2-Dimethylamino-ethoxy)-phenyl]-5-phenyl-7H-pyrrolo[2,3-d]pyrimidin-4-yl}-(2-methoxy-cyclobutylmethyl)-amine] | > 100 |
